Data: patent publication US20210386761A1, “COMPOSITION FOR PREVENTING OR TREATING INFLAMMATORY BOWEL DISEASE, CONTAINING, AS ACTIVE INGREDIENT, TAURODEOXYCHOLIC ACID OR PHARMACEUTICALLY ACCEPTABLE SALT THEREOF” (SHAPERON INC., priority 2019, published 2021)

What was measured:
[1] = tested on: inflammatory bowel disease induced by 3% DSS administration for 7 days; test: 3% DSS 7-day inflammatory bowel disease model, comparison with clinical prescription drugs; type: in vivo, mouse; conditions: 3% DSS 7 days
Procedure: (§1) In order to evaluate the clinical symptoms-improving efficacy in comparison with those by clinical prescription drugs, inflammatory bowel disease was induced by 7-day or repeated administration of 3% or 2.5% DSS solution, and tofacitinib 10 mg/kg, 5-ASA 100 mg/kg or 200 mg/kg, prednisolone 1 mg/kg, and TDCA 2.5 mg/kg were administered one time a day from the start date of DSS administration. From the start date of DSS administration, TDCA 2.5 mg/kg was administered one time a day (QD), two times a day (BID), and three times a day (TID).
(§2) The disease activity indexes (DAI) including body weight, body weight loss, stool consistency, and bloody stool were measured daily. DAI was scored according to the following [Table 1].
After the experiment was completed, the mice were euthanized with CO2 and the bowels were excised. Next, the bowels were put in cold 1×DPBS and the remaining mesenteric adipose tissue was isolated. At this time, the colon length was measured. Next, the tail end of the colon was opened and wound up with scissors to obtain colon tissue. The obtained colon tissue was fixed in 10% neutral buffered formalin (Sigma-Aldrich, HT501128-4L, St. Louis, Mo., USA) at room temperature for 48 hours and then treated in a tissue processor (Excelsior ES, Thermo scientific, Waltham, Mass., USA) for 12 hours. The processed tissue was sectioned and paraffinized using a microtome (Microm, HM 340E, Thermo Scientific, Waltham, Mass., USA) and an embedding system (HistoStar, Thermo Scientific, Waltham, Mass., USA). Next, the processed tissue was stained with hematoxylin and eosin, and visualized under an optical microscope (Motic, BA310, Redding, Calif., USA) to confirm the histopathological state, and the histopathological state was scored to histological score according to the criteria in the following [Table 2].

[2] = tested on: TGR5 knockout (TGR5−/−) inflammatory bowel disease-induced mouse model; test: Clinical symptom analysis in DSS-induced TGR5 knock-out (TGR5−/−) mouse model; type: in vivo; conditions: TGR5−/− mice, 2% DSS 10 days
Procedure: as §2
Specifically, C57BL/6-Gpbar1^tm1(KOMP)Vlcg mice (TGR5 KO, KOMP Repository, The Knockout Mouse Project, University of California, Davis, Calif.) were used as TGR5 knockout (TGR5^−/−) female C57BL/6 mice. The TGR5^−/− female C57BL/6 mice or TGR5 normal (WT) female C57BL/6 mice were fed with a 2% DSS solution or DPBS together with drinking water for 10 days from Day 0 of the experiment by the same method as that described in <Example 1>. DPBS or 5 mg/kg TDCA was administered to the mice by oral gavage one time a day for 11 days from Day 1 of the experiment, and the body weight and DAI were measured daily. As a control, mice freely fed with drinking water were used.

[3] = tested on: chronic inflammatory bowel disease model induced with 2.5% DSS; test: Chronic inflammatory bowel disease model, repeated 2.5% DSS, comparison with clinical prescription drugs; type: in vivo, mouse
Procedure: as §1

For `C[C@H](CCC(=O)NCCS(=O)(=O)O)[C@H]1CC[C@H]2[C@@H]3CC[C@@H]4C[C@H](O)CC[C@]4(C)[C@H]3C[C@H](O)[C@]12C` [TDCA, sodium taurodeoxycholic acid], the “body weight change, compared with clinical prescription drugs” value ([1]; TDCA 2.5 mg/kg one time a day vs tofacitinib 10 mg/kg and 5-ASA 100 mg/kg, FIG. 9A) was “effect equivalent to those by tofacitinib 10 mg/kg and 5-ASA 100 mg/kg”, the “DAI change, compared with clinical prescription drugs” value ([1]; TDCA 2.5 mg/kg one time a day vs tofacitinib 10 mg/kg and 5-ASA 100 mg/kg, FIG. 9B) was “effect equivalent to those by tofacitinib 10 mg/kg and 5-ASA 100 mg/kg” and the “colon length, compared with clinical prescription drugs” value ([1]; TDCA 2.5 mg/kg vs tofacitinib 10 mg/kg and 5-ASA 100 mg/kg, FIG. 9C) was “effect equivalent to those by tofacitinib 10 mg/kg and 5-ASA 100 mg/kg”. The “histological lesion index, compared with clinical prescription drugs” value ([1]; TDCA 2.5 mg/kg vs tofacitinib 10 mg/kg and 5-ASA 100 mg/kg, FIG. 9D) was “effect equivalent to those by tofacitinib 10 mg/kg and 5-ASA 100 mg/kg”, the “initial body weight lost on Day 10” value ([2]; 5 mg/kg TDCA oral gavage one time a day, FIG. 8A) was “about 27%” and the DAI change ([2]; 5 mg/kg TDCA, FIG. 8B) was “DAI was high”. The survival rate ([2]; 5 mg/kg TDCA, FIG. 8C) was 60%, the “body weight change, compared with clinical prescription drugs” value ([3]; TDCA 2.5 mg/kg QD, BID and TID vs tofacitinib 10 mg/kg and 5-ASA 200 mg/kg, FIG. 11A) was “effect equivalent to or higher than those by tofacitinib 10 mg/kg and 5-ASA 200 mg/kg” and the “mortality, compared with clinical prescription drugs” value ([3]; TDCA 2.5 mg/kg, FIG. 11B) was “effect equivalent to or higher than those by clinical prescription drugs”.
